Results taken from patent publication US20210077370A1, “Use of compositions comprising dihydroxyacetone for the protection of skin or hair against infrared irradiation” (Merck Patent GmbH, priority 2019, published 2021).

Tests used:
[1] = test system: MMP1; experiment: MMP1 immunostaining on human skin explants after IR-A irradiation; type: cell-based
Procedure: (§1) The product tested is a solution of 2% DHA in water. This was done to avoid formulation effects of auxiliary ingredients.
(§2) Human skin explants were prepared on an abdominoplasty coming from a person (Fitzpatrick skin phototype II-Ill). The explants were kept in survival in BEM culture medium (BIO-EC's Explants Medium) at 37° C. in a humid, 5%-CO2 atmosphere.
(§3) On day 0 (D0), day 3 (D3) and day 4 (D4; 3 hours before IR irradiation), day 5 (D5) and day 6 (D6), the product was applied topically followed by 10 minutes of drying. […] The culture medium was half renewed (1 ml/well) on day 3 and day 5. Irradiation of the explants were done using an infrared lamp (Dr FISCHER 1000 W, 235V, 2500K, 760-3000 nm), for 5040 s (720 J/cm^2). Water filter and IR760 filter were also used to have the following IR range of 700 nm to 1150 nm. The unirradiated batches were kept in HBSS (Hank's Balanced Saline Solution) in the dark. At the end of the irradiation, all the explants were put back in 2 ml of fresh BEM culture medium.
(§4) The explants temperature was measured before and after IR-A irradiation. To avoid temperature-driven side-effects, the explants temperature was maintained at 37° C. (max. 39° C.) by specially adapted refreshing system.
The immunostaining was performed using an automated slide processing system (Autostainer, Dako) and assessed by microscopical observation.

[2] = test system: tropoelastin; experiment: Tropoelastin immunostaining on human skin explants after IR-A irradiation; type: cell-based; details: papillary dermis
Procedure: as §1, §2, §3, §4
The nuclei were counterstained by propidium iodide.
The immunostaining was assessed by microscopical observation.

SMILES: O=C(CO)CO [DHA, 1,3-dihydroxy-2-propanone]
- MMP-1 decrease versus irradiated blank, epidermis ([1]; epidermis, IR-A irradiated, day 5, p<0.01): 65%
- MMP1 in the epidermis (% surface) ([1]; living epidermis, IR-A irradiated explant + product applied topically, day 5): 8.4 % surface
- protection of the explants after irradiation to IR-A (tropoelastin) ([2]; day 7): excellent protection
- Tropoelastin levels after IR-A irradiation and DHA treatment versus blank untreated explant ([2]; day 7, statistically not different (p>0.1)): comparable to those of blank untreated explant
